Positions of bridges follow the written chain, without caps; N, C: chain ends. Residues, ends and D or L forms follow the SMILES beside them.

Assay [1] can be described thus: Inhibition of human alpha9 rat alpha10 nAChR expressed in Xenopus oocytes assessed as inhibition of acetylcholine-induced currents after 300 secs by two-electrode voltage clamp assay. Type of assay: cell-based. The note with it: Oocyte. Background: Two-electrode voltage clamp is typically applied to oocytes expressing channels or transporters.
Assay [2] has as its target Nicotinic acetylcholine receptor alpha9/alpha10 (Rattus norvegicus, UniProt P43144+Q9JLB5). As to the kind of experiment: Inhibition of rat alpha9/alpha10 nAChR expressed in Xenopus oocytes assessed as inhibition of acetylcholine-induced currents after 300 secs by two-electrode voltage clamp assay. The assay is classed as cell-based, Oocyte.
The nature of assay [3]: Selectivity ratio of IC50 for human alpha9 rat alpha10 nAChR to IC50 for rat alpha9/alpha10 nAChR.
The subject of the next assay is Oocyte. The experiment in a line: Inhibition of human alpha9 rat alpha10 nAChR expressed in Xenopus oocytes assessed as inhibition of acetylcholine-induced currents at 100 nM after 300 secs by two-electrode voltage clamp assay. Type of assay: cell-based.

Chain of Nicotinic acetylcholine receptor alpha9/alpha10 (P43144 whole entry): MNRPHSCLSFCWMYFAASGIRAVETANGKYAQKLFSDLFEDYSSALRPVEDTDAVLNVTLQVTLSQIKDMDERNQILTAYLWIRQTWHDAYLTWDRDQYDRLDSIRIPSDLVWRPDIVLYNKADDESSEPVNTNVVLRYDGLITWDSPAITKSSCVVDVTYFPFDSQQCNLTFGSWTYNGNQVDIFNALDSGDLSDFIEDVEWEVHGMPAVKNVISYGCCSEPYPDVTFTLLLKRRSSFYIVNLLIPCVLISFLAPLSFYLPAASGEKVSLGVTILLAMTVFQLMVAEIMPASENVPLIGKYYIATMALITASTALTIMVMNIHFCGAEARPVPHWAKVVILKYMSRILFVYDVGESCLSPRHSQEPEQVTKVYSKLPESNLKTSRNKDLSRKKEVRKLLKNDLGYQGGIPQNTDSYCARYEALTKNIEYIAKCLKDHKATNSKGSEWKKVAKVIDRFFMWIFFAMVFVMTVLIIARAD
Chain of Nicotinic acetylcholine receptor alpha9/alpha10 (Q9JLB5 whole entry): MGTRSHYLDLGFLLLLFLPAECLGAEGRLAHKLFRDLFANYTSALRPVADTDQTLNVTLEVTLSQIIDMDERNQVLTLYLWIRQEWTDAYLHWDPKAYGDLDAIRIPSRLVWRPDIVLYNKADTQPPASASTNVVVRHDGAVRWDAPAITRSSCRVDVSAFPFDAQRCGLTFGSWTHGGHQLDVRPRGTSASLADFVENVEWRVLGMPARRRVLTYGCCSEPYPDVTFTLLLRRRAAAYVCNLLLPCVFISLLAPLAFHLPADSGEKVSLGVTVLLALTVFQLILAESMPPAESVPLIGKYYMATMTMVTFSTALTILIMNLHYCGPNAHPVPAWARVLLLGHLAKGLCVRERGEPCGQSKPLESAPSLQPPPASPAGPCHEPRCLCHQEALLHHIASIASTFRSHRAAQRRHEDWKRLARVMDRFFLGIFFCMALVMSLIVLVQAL

For `CC[C@H](C)[C@@H]1NC(=O)[C@H](CCC(=O)O)NC(=O)[C@@H]2CCCN2C(=O)[C@H](Cc2cnc[nH]2)NC(=O)[C@H](CC(=O)O)NC(=O)[C@H](Cc2ccc(O)cc2)NC(=O)[C@H](CC(N)=O)NC(=O)[C@@H]2CSSC[C@H](NC(=O)CN)C(=O)N[C@@H](CSSC[C@@H](C(=O)O)NC1=O)C(=O)N[C@@H](CO)C(=O)N[C@@H](CC(=O)O)C(=O)N1CCC[C@H]1C(=O)N[C@@H](CCCNC(=N)N)C(=O)N2`, the IC50 in assay [1] is 975 nM; in assay [2], 70 nM. Also, the Ratio IC50 in assay [3] was 14.

Regarding `CC[C@H](C)[C@@H]1NC(=O)[C@H](CCC(=O)O)NC(=O)[C@@H]2CCCN2C(=O)[C@H](Cc2cnc[nH]2)NC(=O)[C@H](CC(=O)O)NC(=O)[C@H](Cc2ccccc2)NC(=O)[C@H](CC(N)=O)NC(=O)[C@@H]2CSSC[C@H](NC(=O)CN)C(=O)N[C@@H](CSSC[C@@H](C(=O)O)NC1=O)C(=O)N[C@@H](CO)C(=O)N[C@@H](CC(=O)O)C(=O)N1CCC[C@H]1C(=O)N[C@@H](CCCNC(=N)N)C(=O)N2` (H-GCCSDPRCNFDHPEIC-OH; disulfide 2-8, 3-16), in the assay on Oocyte, the inhibition was 10%. The values for the IC50 in assay [1] and in assay [2] were 763 nM and 500 nM, respectively.

In the case of `CC[C@H](C)[C@@H]1NC(=O)[C@H](CCC(=O)O)NC(=O)[C@@H]2CCCN2C(=O)[C@H](Cc2cnc[nH]2)NC(=O)[C@H](CC(=O)O)NC(=O)[C@H](Cc2c[nH]c3ccccc23)NC(=O)[C@H](CC(N)=O)NC(=O)[C@@H]2CSSC[C@H](NC(=O)CN)C(=O)N[C@@H](CSSC[C@@H](C(=O)O)NC1=O)C(=O)N[C@@H](CO)C(=O)N[C@@H](CC(=O)O)C(=O)N1CCC[C@H]1C(=O)N[C@@H](CCCNC(=N)N)C(=O)N2` (H-GCCSDPRCNWDHPEIC-OH; disulfide 2-8, 3-16), the inhibition with Oocyte was 80%. Further, the IC50 in assay [1] was 33 nM; in assay [2] it was 43 nM.

In general, IC50 refers to the concentration needed to halve the response being measured. Usually inhibition stands for the change of the read-out against control, counted positive when it falls.

The values are drawn from ChEMBL document CHEMBL2331341, “Determination of the α-conotoxin Vc1.1 binding site on the α9α10 nicotinic acetylcholine receptor” (J Med Chem, 2013).
